18 molecules from patent US20250115600A1, “COVALENT MODIFIERS OF AKT1 AND USES THEREOF” (Terremoto Biosciences, Inc., priority 2022, published 2025) can be followed below.

Common to all, as to test: Live cell target engagement (NanoBRET) in HEK293 cells
Holding throughout (assay type): cell-based
A general note: In BRET a luciferase serves as donor, and the signal depends on an acceptor being close.

The target in one assay is AKT1 WT (Homo sapiens (Human), UniProt P31749). To be noted: HEK293, 2 hours at 37° C.
Chain of AKT1 WT (P31749 whole entry): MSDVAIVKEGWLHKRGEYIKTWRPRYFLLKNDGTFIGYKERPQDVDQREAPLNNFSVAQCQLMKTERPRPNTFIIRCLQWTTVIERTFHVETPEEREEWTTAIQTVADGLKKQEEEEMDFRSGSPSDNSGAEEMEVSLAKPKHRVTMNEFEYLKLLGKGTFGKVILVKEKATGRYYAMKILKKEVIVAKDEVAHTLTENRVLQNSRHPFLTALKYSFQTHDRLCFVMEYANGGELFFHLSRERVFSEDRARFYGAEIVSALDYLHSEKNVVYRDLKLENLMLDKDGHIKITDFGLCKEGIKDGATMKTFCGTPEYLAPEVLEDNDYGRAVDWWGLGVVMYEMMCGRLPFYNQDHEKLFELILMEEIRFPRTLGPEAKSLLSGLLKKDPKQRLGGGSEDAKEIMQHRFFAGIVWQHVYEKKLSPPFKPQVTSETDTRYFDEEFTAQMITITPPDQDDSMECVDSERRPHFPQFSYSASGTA
In another assay the target is AKT2 (Homo sapiens (Human), UniProt P31751). The note with it: HEK293, 2 hours at 37° C.
Chain of AKT2 (P31751 whole entry): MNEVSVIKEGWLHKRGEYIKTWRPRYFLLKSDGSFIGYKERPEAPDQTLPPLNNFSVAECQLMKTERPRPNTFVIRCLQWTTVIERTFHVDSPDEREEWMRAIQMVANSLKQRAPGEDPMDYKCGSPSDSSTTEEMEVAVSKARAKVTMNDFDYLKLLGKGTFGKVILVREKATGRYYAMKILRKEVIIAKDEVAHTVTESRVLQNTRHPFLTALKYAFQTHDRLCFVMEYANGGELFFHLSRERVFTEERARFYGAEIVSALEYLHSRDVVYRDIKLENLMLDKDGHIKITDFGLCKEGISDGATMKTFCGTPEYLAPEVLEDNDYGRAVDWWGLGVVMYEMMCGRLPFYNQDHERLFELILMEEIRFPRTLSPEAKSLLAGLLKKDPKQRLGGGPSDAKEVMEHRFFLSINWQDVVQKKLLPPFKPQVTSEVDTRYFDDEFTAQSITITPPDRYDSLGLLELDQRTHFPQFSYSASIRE
For a further assay, the target named is AKT1 E17K (Homo sapiens (Human), UniProt P31749, E17K). To be noted: for IC50: HEK293, 2 hours at 37° C.
Chain of AKT1 E17K (P31749 whole entry E17K): as the sequence (P31749 whole entry) above, with E17K counted along it

Regarding `Nc1ncccc1-c1nc2ccc(-c3cccnc3)nc2n1-c1ccc(CNCCc2ccc(C=O)c(O)c2F)cc1` [Compound 88, 4-(2-((4-(2-(2-aminopyridin-3-yl)-5-(pyridin-3-yl)-3H-imidazo[4,5-b]pyridin-3-yl)benzyl)amino)ethyl)-3-fluoro-2-hydroxybenzaldehyde], at AKT1 WT, the IC50 (as a rule, the concentration that gives 50% inhibition) is below 100 nM. At AKT2, this molecule showed an IC50 of 100 to 500 nM. On AKT1 E17K, the “AKT1 E17K IC50: Selectivity vs AKT1 WT” value worked out at 3.9, the “AKT1 E17K IC50: Selectivity vs AKT2” value was found to be 55 and the IC50 was below 100 nM.
Take `CC(=O)Nc1c(C=O)ccc(CCNCc2ccc(-n3c(-c4cccnc4N)nc4cccnc43)cc2)c1F` [Compound 89, N-(3-{2-[({4-[2-(2-aminopyridin-3-yl)imidazo[4,5-b]pyridin-3-yl]phenyl}methyl)amino]ethyl}-2-fluoro-6-formylphenyl)acetamide]: the half-maximal inhibitory concentration (IC50) against AKT1 WT was 100 to 500 nM; against AKT2, above 500 nM; at AKT1 E17K it was above 500 nM. At AKT1 E17K, the “AKT1 E17K IC50: Selectivity vs AKT1 WT” value is reported as 0.14. Also, the “AKT1 E17K IC50: Selectivity vs AKT2” value on AKT1 E17K was determined as 2.1.
In the case of `CC(=O)Nc1c(C=O)ccc(CCNCc2ccc(-n3c(-c4cccnc4N)nc4ccc(-c5ccccc5)nc43)cc2)c1F` [Compound 90, N-(3-{2-[({4-[2-(2-aminopyridin-3-yl)-5-phenylimidazo[4,5-b]pyridin-3-yl]phenyl}methyl)amino]ethyl}-2-fluoro-6-formylphenyl)acetamide], the 50% inhibitory concentration (IC50) against AKT1 WT is below 100 nM. The IC50 against AKT2 was below 100 nM. At AKT1 E17K, the “AKT1 E17K IC50: Selectivity vs AKT1 WT” value stood at 0.65, the “AKT1 E17K IC50: Selectivity vs AKT2” value came out at 1.6 and the IC50 was below 100 nM.
As for `C[C@H](NCCc1ccc(O)c(C=O)c1)c1ccc(-n2c(-c3cccnc3N)nc3ccc(-c4ccccc4)nc32)cc1` [Compound 92, 5-(2-{[(1S)-1-{4-[2-(2-aminopyridin-3-yl)-5-phenylimidazo[4,5-b]pyridin-3-yl]phenyl}ethyl]amino}ethyl)-2-hydroxybenzaldehyde], the IC50 against AKT1 WT is 100 to 500 nM. The same molecule came in with an IC50 at AKT2 of 100 to 500 nM. Also, at AKT1 E17K, the “AKT1 E17K IC50: Selectivity vs AKT1 WT” value turned out to be 0.26, the “AKT1 E17K IC50: Selectivity vs AKT2” value came to 0.75 and the IC50 lay in the range of 100 to 500 nM.
On AKT1 WT, `Nc1ncccc1-c1nc2cccnc2n1-c1ccc(CNC(=O)Cc2ccc(C=O)c(O)c2F)cc1` [Compound 93, N-({4-[2-(2-aminopyridin-3-yl)imidazo[4,5-b]pyridin-3-yl]phenyl}methyl)-2-(2-fluoro-4-formyl-3-hydroxyphenyl)acetamide] came in with a concentration for half-maximal inhibition (IC50) of 100 to 500 nM. For the same molecule, at AKT2, the IC50 was above 500 nM. On AKT1 E17K, the “AKT1 E17K IC50: Selectivity vs AKT1 WT” value is listed as 3.9, the “AKT1 E17K IC50: Selectivity vs AKT2” value is recorded as 50 and the IC50 was below 100 nM.
With `Nc1ncccc1-c1nc2cccnc2n1-c1ccc(CNCCc2ccc(C=O)c(O)c2F)cc1` [Compound 95, 4-(2-((4-(2-(2-aminopyridin-3-yl)-3H-imidazo[4,5-b]pyridin-3-yl)benzyl)amino)ethyl)-3-fluoro-2-hydroxybenzaldehyde], the 50% inhibitory concentration (IC50) against AKT1 WT was above 500 nM. The same molecule gave an IC50 against AKT2 above 500 nM. Also, at AKT1 E17K, the “AKT1 E17K IC50: Selectivity vs AKT1 WT” value came out at 1.8, the “AKT1 E17K IC50: Selectivity vs AKT2” value was found to be 2.5 and the 50% inhibitory concentration (IC50) is above 500 nM.
`COc1cc(CCNCc2ccc(-n3c(-c4cccnc4N)nc4ccc(-c5ccccc5)nc43)cc2)ccc1C=O` [Compound 97, 4-{2-[({4-[2-(2-aminopyridin-3-yl)-5-phenylimidazo[4,5-b]pyridin-3-yl]phenyl}methyl)amino]ethyl}-2-methoxybenzaldehyde] gave an IC50 against AKT1 WT below 100 nM. The IC50 on AKT2 is 100 to 500 nM. Moreover, at AKT1 E17K, the “AKT1 E17K IC50: Selectivity vs AKT1 WT” value was 0.56, the “AKT1 E17K IC50: Selectivity vs AKT2” value worked out at 1.9 and the half-maximal inhibitory concentration (IC50) is below 100 nM.
Take `CC(=O)Nc1cc(CCNCc2ccc(-n3c(-c4cccnc4N)nc4cccnc43)cc2)ccc1C=O` [Compound 98, N-(5-{2-[({4-[2-(2-aminopyridin-3-yl)imidazo[4,5-b]pyridin-3-yl]phenyl}methyl)amino]ethyl}-2-formylphenyl)acetamide]: the IC50 against AKT1 WT was below 100 nM. On AKT2, the IC50 is above 500 nM. For the same molecule, on AKT1 E17K, the “AKT1 E17K IC50: Selectivity vs AKT1 WT” value amounted to 2.5, the “AKT1 E17K IC50: Selectivity vs AKT2” value is given as 38 and the IC50 is below 100 nM.
For `Nc1ncccc1-c1nc2ccc(Cl)nc2n1-c1ccc(CNCCc2ccc(C=O)c(O)c2)cc1` [Compound 99, 4-{2-[({4-[2-(2-aminopyridin-3-yl)-5-chloroimidazo[4,5-b]pyridin-3-yl]phenyl}methyl)amino]ethyl}-2-hydroxybenzaldehyde], the IC50 against AKT1 WT was in the range of 100 to 500 nM. On AKT2, this molecule returned an IC50 above 500 nM. Further, on AKT1 E17K, the “AKT1 E17K IC50: Selectivity vs AKT1 WT” value amounted to 3.7, the “AKT1 E17K IC50: Selectivity vs AKT2” value was 8.4 and the IC50 is below 100 nM.
`CN(C(=O)CCc1ccc(C=O)c(O)c1)c1ccc(-n2c(-c3cccnc3N)nc3ccc(-c4ccccc4)nc32)cc1` [Compound 100, N-(4-(2-(2-aminopyridin-3-yl)-5-phenyl-3H-imidazo[4,5-b]pyridin-3-yl)phenyl)-3-(4-formyl-3-hydroxyphenyl)-N-methylpropanamide] yielded an IC50 against AKT1 WT of 100 to 500 nM. On AKT2, this molecule showed an IC50 above 500 nM. Moreover, on AKT1 E17K, the “AKT1 E17K IC50: Selectivity vs AKT1 WT” value is 1.9, the “AKT1 E17K IC50: Selectivity vs AKT2” value is 13 and the IC50 was 100 to 500 nM.
As to `CS(=O)(=O)Nc1cccc(-c2ccc3nc(-c4cccnc4N)n(-c4ccc(CNCCc5ccc(C=O)c(O)c5)cc4)c3n2)c1` [Compound 101, N-{3-[2-(2-aminopyridin-3-yl)-3-[4-({[2-(4-formyl-3-hydroxyphenyl)ethyl]amino}methyl)phenyl]imidazo[4,5-b]pyridin-5-yl]phenyl}methanesulfonamide], the IC50 against AKT1 WT is below 100 nM. Moreover, the IC50 at AKT2 is 100 to 500 nM. Moreover, at AKT1 E17K, the “AKT1 E17K IC50: Selectivity vs AKT1 WT” value is recorded as 1.8, the “AKT1 E17K IC50: Selectivity vs AKT2” value is on record as 5.9 and the IC50 is below 100 nM.
As for `CC(=O)Nc1cccc(-c2ccc3nc(-c4cccnc4N)n(-c4ccc(CNCCc5ccc(C=O)c(O)c5F)cc4)c3n2)c1` [Compound 102, N-{3-[2-(2-aminopyridin-3-yl)-3-[4-({[2-(2-fluoro-4-formyl-3-hydroxyphenyl)ethyl]amino}methyl)phenyl]imidazo[4,5-b]pyridin-5-yl]phenyl}acetamide], the IC50 against AKT1 WT is 100 to 500 nM; on AKT2, above 500 nM; at AKT1 E17K, 100 to 500 nM. In addition, the “AKT1 E17K IC50: Selectivity vs AKT1 WT” value on AKT1 E17K stood at 1.1. Besides, at AKT1 E17K, the “AKT1 E17K IC50: Selectivity vs AKT2” value came out at 2.
Regarding `Nc1ncccc1-c1nc2ccc(-c3ccccn3)nc2n1-c1ccc(CNCCc2ccc(C=O)c(O)c2)cc1` [Compound 103, 4-{2-[({4-[2-(2-aminopyridin-3-yl)-5-(pyridin-2-yl)imidazo[4,5-b]pyridin-3-yl]phenyl}methyl)amino]ethyl}-2-hydroxybenzaldehyde], the IC50 at AKT1 WT was below 100 nM. Also, at AKT2, the IC50 fell in the range of 100 to 500 nM. Moreover, on AKT1 E17K, the “AKT1 E17K IC50: Selectivity vs AKT1 WT” value amounted to 2.5, the “AKT1 E17K IC50: Selectivity vs AKT2” value is 11 and the IC50 is below 100 nM.
`Nc1ncccc1-c1nc2ccc(-c3ccccc3)nc2n1-c1ccc(C(=O)NCC#Cc2ccc(C=O)c(O)c2)cc1` [Compound 104, 4-(2-(2-aminopyridin-3-yl)-5-phenyl-3H-imidazo[4,5-b]pyridin-3-yl)-N-(3-(4-formyl-3-hydroxyphenyl)prop-2-yn-1-yl)benzamide] returned an IC50 against AKT1 WT above 500 nM. Moreover, on AKT2, the IC50 was above 500 nM. At AKT1 E17K, the “AKT1 E17K IC50: Selectivity vs AKT1 WT” value was 0.72, the “AKT1 E17K IC50: Selectivity vs AKT2” value is 1 and the IC50 was above 500 nM.
On AKT1 WT, `C[C@@H](NCCc1ccc(O)c(C=O)c1)c1ccc(-n2c(-c3cccnc3N)nc3ccc(-c4ccccc4)nc32)cc1` [Compound 105, (R)-5-(2-((1-(4-(2-(2-aminopyridin-3-yl)-5-phenyl-3H-imidazo[4,5-b]pyridin-3-yl)phenyl)ethyl)amino)ethyl)-2-hydroxybenzaldehyde] gave a 50% inhibitory concentration (IC50) above 500 nM. The IC50 against AKT2 was above 500 nM. Besides, at AKT1 E17K, the “AKT1 E17K IC50: Selectivity vs AKT1 WT” value is 1, the “AKT1 E17K IC50: Selectivity vs AKT2” value was above 1.0 and the IC50 is above 500 nM.
For `Nc1ncccc1-c1nc2ccc(-c3ccccc3)nc2n1-c1ccc(S(=O)(=O)NCCc2ccc(C=O)c(O)c2)cc1` [Compound 106, 4-[2-(2-aminopyridin-3-yl)-5-phenylimidazo[4,5-b]pyridin-3-yl]-N-[2-(4-formyl-3-hydroxyphenyl)ethyl]benzenesulfonamide], the concentration for half-maximal inhibition (IC50) against AKT1 WT, on AKT2 and against AKT1 E17K was above 500 nM each time. Also, the “AKT1 E17K IC50: Selectivity vs AKT1 WT” value at AKT1 E17K stood at 0.85. At AKT1 E17K, the “AKT1 E17K IC50: Selectivity vs AKT2” value was found to be 0.91.
Turning to `Nc1ncccc1-c1nc2ccc(-c3cccc(N4CCOCC4)c3)nc2n1-c1ccc(CNCCc2ccc(C=O)c(O)c2)cc1` [Compound 108, 4-(2-((4-(2-(2-aminopyridin-3-yl)-5-(3-morpholinophenyl)-3H-imidazo[4,5-b]pyridin-3-yl)benzyl)amino)ethyl)-2-hydroxybenzaldehyde], the IC50 on AKT1 WT, on AKT2 and at AKT1 E17K was below 100 nM each time. In addition, the “AKT1 E17K IC50: Selectivity vs AKT1 WT” value on AKT1 E17K is 1.2. Moreover, the “AKT1 E17K IC50: Selectivity vs AKT2” value at AKT1 E17K was 2.1.
Turning to `CC(=O)N(C)C1CCN(c2cccc(-c3ccc4nc(-c5cccnc5N)n(-c5ccc(CNCCc6ccc(C=O)c(O)c6)cc5)c4n3)c2)CC1` [Compound 109, N-(1-{3-[2-(2-aminopyridin-3-yl)-3-[4-({[2-(4-formyl-3-hydroxyphenyl)ethyl]amino}methyl)phenyl]imidazo[4,5-b]pyridin-5-yl]phenyl}piperidin-4-yl)-N-methylacetamide], the IC50 against AKT1 WT, at AKT2 and against AKT1 E17K was below 100 nM each time. Moreover, on AKT1 E17K, the “AKT1 E17K IC50: Selectivity vs AKT1 WT” value turned out to be 0.63. The “AKT1 E17K IC50: Selectivity vs AKT2” value on AKT1 E17K is 0.6.
